# Legend:
# [1] = target: T1, Apyrase (Solanum tuberosum, UniProt P80595); experiment: Inactivation of excess Apyrase in raw Bovine milk by surfactants, signal after ATP standard added; assay type: biochemical; conditions: 50 ul raw Bovine milk pretreated with 284 mU Apyrase
# T1 construct: purchased Sigma Chemical A6535
# T1 sequence (P80595 1-454): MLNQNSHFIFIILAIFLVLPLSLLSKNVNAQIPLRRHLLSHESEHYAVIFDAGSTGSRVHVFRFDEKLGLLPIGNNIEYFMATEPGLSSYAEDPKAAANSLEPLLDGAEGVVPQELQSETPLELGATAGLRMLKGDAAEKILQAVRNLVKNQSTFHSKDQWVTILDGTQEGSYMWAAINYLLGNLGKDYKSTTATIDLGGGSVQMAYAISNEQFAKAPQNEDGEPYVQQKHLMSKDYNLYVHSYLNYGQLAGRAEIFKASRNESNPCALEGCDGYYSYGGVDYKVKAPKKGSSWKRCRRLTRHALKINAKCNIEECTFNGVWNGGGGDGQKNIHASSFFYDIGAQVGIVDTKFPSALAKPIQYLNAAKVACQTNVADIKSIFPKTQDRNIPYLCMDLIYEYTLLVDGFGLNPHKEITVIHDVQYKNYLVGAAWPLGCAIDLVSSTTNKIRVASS
# Procedure: It is important to eliminate any excess Apyrase that may remain in the raw Bovine milk sample after treatment with the Apyrase enzyme that was used to eliminate endogenous ATP in Example #4. […] Among the reagents evaluated were: dimethyldioctadecylammonium chloride, laureltrimethylammonium bromide (DTAB), benzyldimethyldodecylammonium bromide (BDDABr), and cetyl trimethylammonium bromide (CTAB). The experiment was performed by adding between 0.02% and 1% of the selected surfactant to 50 ul of raw Bovine milk that had treated previously been treated with 284 mU of Apyrase as detailed in example #4. The levels of ATP were confirmed by adding 50 uL of Promega luciferin-luciferase reagent (containing 25 mM HEPES buffer (pH 7.5), 40 pg luciferase, 100 pM luciferin, and 10 mM MgSO4). As expected the readings determined on the Hygiena Ensure Luminometer were too low to measure, since all of the ATP had already been eliminated by Apyrase treatment in Example #4. After the initially readings were determined as described above, 10 uL of a 10^−8M solution of ATP standard (Sigma Chemical) was added to the samples above and the bioluminescent signal was determined on a Hygiena Ensure Luminometer. As expected a signal was now detected, since all of the excess Apyrase added earlier had been eliminated by the surfactants being evaluated. The best results were seen when the detergents benzyldimethyldodecylammonium bromide (BDDABr) at 0.05% concentration and, laureltrimethylammonium bromide (DTAB) at 0.5% and 1.0% concentrations were added to the samples.
# [2] = Sigma Chemical A6535, vendor specification; cited from earlier work
# [3] = Elimination of endogenous ATP in raw Bovine milk, luciferin-luciferase readout; assay type: biochemical
# Procedure: All assays were performed using 50 uL of raw Bovine milk and 50 uL of Promega luciferin-luciferase reagent (containing 25 mM HEPES buffer (pH 7.5), 40 pg luciferase, 100 pM luciferin, and 10mM MgSO4). Bioluminescent measurements were determined using the Hygiena Ensure System. The test was performed in both 100% and 50% raw Bovine milk. […] At a concentration of 284 mUnits the apyrase is able to deplete the endogenous ATP in 50 μL of raw milk in less than 30 seconds. The diminution of ATP was so fast with higher concentrations of Apyrase (diluting the enzyme) resulting in the inability to take meaningful reading, since all of the ATP was gone within 10 seconds. There are numerous commercially available ATP-degrading enzymes that can be tested for this purpose, but in our system, the Apyrase enzyme appears more than sufficient.
# [4] = system: S. aureus; experiment: Rupture of gram-positive bacteria by lytic enzyme, read by bioluminescence of released ATP; assay type: cell-based; conditions: 0.05% enzyme, PBS buffer, mastitic milk or healthy milk
# Excerpt: As the goal of this invention is to target and detect only gram positive organisms active in mastitis such as: S. aureus, Coagulase negative staphylococci (CoNS) and S. uberi, it is important to identify lytic enzymes that can effectively rupture the cell walls of these pathogens in the presence of raw Bovine milk. […] The action against specific gram-positive organisms of these enzymes has been verified in PBS buffered solutions, but their ability to rupture bacteria had to be verified to in raw milk. The first candidates tested in for their activity in Bovine milk were Lysostaphin (Lyso) which attacks S. aureus, and Streptococcal phage lytic enzyme (PlyC) which attacks Streptococcus uberis. In all reactions, a concentration a of 0.05% of the phage lytic enzyme was used to evaluate the time required to rupture the cell wall of gram-positive bacteria in raw Bovine milk, as well as in a Phosphate-buffered saline (PBS) solution. It was determined that that in one hour, PlyC can eradicate up to 6 logs of S. uberis in PBS buffer, and either mastitic milk or healthy milk. The degree of lysing was determined by bioluminescence produced by the ATP released from the ruptured cells as described earlier. We then lowered the bacterial load to 2 logs of S. uberis in PBS buffer, and either mastitic milk or healthy milk, and it was determined that the PlyC can eradicate this bacterial load in 3 minutes or less. Similar experiments were performed with Lysostaphin (Lyso), which attacks S. aureus, and we determined we that can eradicate up to 6 logs of S. aureus in PBS buffer, and either mastitic milk or healthy milk in under 25 minutes. We then lowered the bacterial load to 2 logs of S. aureus in PBS buffer and either mastitic milk or healthy milk, and it was determined that the Lyso can eradicate this bacterial load in 2 minutes or less.
# [5] = system: somatic cells present in raw Bovine milk; experiment: Rupture of somatic cells in raw Bovine milk, ATP released; assay type: cell-based; conditions: in under 90 seconds; raw Bovine milk with predetermined somatic cell counts
# Procedure: A number of surfactants (detergents) were evaluated for their ability to rupture the somatic cells present in raw Bovine milk samples. Among the reagents tested were Triton X100 (Sigma Chemical) and Neonol AF9-10 (Nonoxynol-9) (Elarum Petrochemicals). Determinations using both surfactants were performed on raw Bovine milk samples in which somatic cell counts were predetermined. […] The number of somatic cell ruptured was determined by quantifying the ATP released in 50 uL samples of treated raw Bovine milk (as a function of time) using 50 uL of Promega luciferin-luciferase reagent (containing 25 mM HEPES buffer (pH 7.5), 40 pg luciferase, 100 pM luciferin, and 10 mM MgSO4). Bioluminescent measurements were performed using a Hygiena Ensure luminometer and all readings were blank corrected.
compound,measurement,setting,value
"CCCCCCCCCCCC[N+](C)(C)Cc1ccccc1.[Br-] [BDDABr, benzyldimethyldodecylammonium bromide]",inactivation of Apyrase (in words),[1]; 0.05% surfactant,best results
"CCCCCCCCCCCC[N+](C)(C)C.[Br-] [DTAB, laureltrimethylammonium bromide]",inactivation of Apyrase (in words),[1]; 0.5% surfactant,best results
same,inactivation of Apyrase (in words),[1]; 1.0% surfactant,best results
Apyrase,ATPase activity of the enzyme preparation,[2],≥ 200 units/mg protein
same,elimination of endogenous ATP (in words),[3]; 100% and 50% raw Bovine milk,works well
same,time to deplete the endogenous ATP,"[3]; 284 mUnits apyrase, 50 μL of raw milk",less than 30 seconds
same,time until all of the ATP was gone,[3]; higher concentrations of Apyrase,≤ 10 s
Lysostaphin: Lysostaphin (Lyso) which attacks S. aureus,time to eradicate bacterial load of 2 logs of S. aureus,[4],≤ 2 minutes
same,time to eradicate up to 6 logs of S. aureus,[4],under 25 minutes
same,bacterial load of S. aureus eradicated,[4]; in under 25 minutes,up to 6 logs
Nonoxynol-9 [Neonol-9-10],ability to rupture somatic cells (in words),[5],superior to the Triton X100

# From patent US20220119856A1, “STALL SIDE METHOD FOR THE DETECTION OF BACTERIA IN DAIRY CATTLE” (TRANSFORMATIVE TECHNOLOGIES, priority 2019, published 2022)
